Experimental data taken from PMC12313710, “Targeting the BAG2/CHIP axis promotes gastric cancer apoptosis by blocking apoptosome assembly” (Frontiers in Immunology, 2025).

Target: T1, CHIP (Homo sapiens, UniProt Q9UNE7)
T1 construct: gene STUB1; commercial human recombinant CHIP (OriGene)
T1 sequence (Q9UNE7 1-303): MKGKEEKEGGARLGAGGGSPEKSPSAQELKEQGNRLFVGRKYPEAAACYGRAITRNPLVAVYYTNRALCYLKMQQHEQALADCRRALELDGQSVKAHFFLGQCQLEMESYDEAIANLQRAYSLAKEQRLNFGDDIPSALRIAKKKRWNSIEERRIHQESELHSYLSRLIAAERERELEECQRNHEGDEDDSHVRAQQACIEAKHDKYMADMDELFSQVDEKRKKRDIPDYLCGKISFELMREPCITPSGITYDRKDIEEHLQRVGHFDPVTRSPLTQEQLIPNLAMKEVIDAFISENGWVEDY
Assay: microscale thermophoresis, Monolith NT.[…], single-site fit
Type: binding

**Q.** Which Kd does the source give for `C=CC(=O)Nc1ccc(CN2C(=O)N(c3cc(OC)cc(OC)c3)Cc3cnc(Nc4ccc(N5CCN(C)CC5)cc4)nc32)cc1` [FIIN-2] here?
**A.** Its Kd is 1830 nM.
